Source: US20200165225A1, “BACE1 INHIBITORS FOR TREATMENT OF ALZHEIMER'S DISEASE” (NantBio, Inc., priority 2017, published 2020)

Each compound was assayed against BACE-1 (Homo sapiens, UniProt P56817) (assay: Inhibition of BACE cleavage of a P5-P5′ fluorescent peptide substrate containing the Swedish mutation cleavage site). Conditions: fluorogenic P5-P5′ BACE-1 substrate; 30 minutes preincubation at room temperature; signal read every 30 minutes at 25° C. for 2 hr.
Type: biochemical
Procedure: The compounds were evaluated for inhibition of BACE cleavage of a P5-P5′ fluorescent peptide substrate containing the Swedish mutation cleavage site. In detail, 4 μL of assay buffer was added to each well, followed by 2 μL of BACE-1 diluted in assay buffer to 7.5 ng/uL. Then, 2 μL of compound, at concentrations along an 11 pt. two-fold dilution series starting at 10 uM, or 0.5 uM, were added to the appropriated wells and incubated for 30 minutes at room temperature. For all dilutions of inhibitor, the compound stock solutions of 10 mM in DMSO were diluted to 50 uM in water; subsequent dilutions were in 0.5% DMSO. Afterwards, 2 μL of fluorogenic P5-P5′ BACE-1 substrate, diluted to 50 μM in assay buffer, were added to each well, after which the signal generated was read every 30 minutes at 25° C. for 2 hr.

Chain of BACE-1 (P56817 46-501): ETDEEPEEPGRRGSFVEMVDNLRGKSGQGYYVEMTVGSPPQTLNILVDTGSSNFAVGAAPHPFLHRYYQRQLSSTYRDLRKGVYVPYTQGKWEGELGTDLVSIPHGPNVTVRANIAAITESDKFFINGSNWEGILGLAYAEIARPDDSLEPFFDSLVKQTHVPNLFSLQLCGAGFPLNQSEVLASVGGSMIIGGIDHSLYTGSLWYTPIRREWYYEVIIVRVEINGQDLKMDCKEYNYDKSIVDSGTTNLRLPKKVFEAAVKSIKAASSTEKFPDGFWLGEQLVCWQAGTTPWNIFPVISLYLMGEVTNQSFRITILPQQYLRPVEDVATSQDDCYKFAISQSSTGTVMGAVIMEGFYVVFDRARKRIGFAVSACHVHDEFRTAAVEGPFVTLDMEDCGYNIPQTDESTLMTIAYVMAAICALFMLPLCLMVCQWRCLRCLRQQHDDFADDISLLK

IC50 [nM]	SMILES
9720	Cc1cc(C2(c3ccnc(C(F)(F)F)c3)N=C(N)N(C)C2=O)ccc1OC(F)F (centres unmarked) [Compound 3]
980	CN1C(=O)C(c2ccc(C(F)(F)F)nc2)(c2cccc(-c3cncnc3)c2)N=C1N (centres unmarked) [Compound 4]
170	CN1C(=O)C(c2cccc(-c3cncnc3)c2)(c2cccc(C(F)F)c2)N=C1N (centres unmarked) [Compound 8]
70	CN1C(=O)C(c2cccc(-c3cncnc3)c2)(c2ccnc(C(F)(F)F)c2)N=C1N (centres unmarked) [Compound 2]
500	CN1C(=O)C(c2cccc(-c3cncnc3)c2)(c2cccc(C(F)F)n2)N=C1N (centres unmarked) [Compound 7]
30	CN1C(=O)C(c2cccc(-c3cncnc3)c2)(c2ccnc(C(F)F)c2)N=C1N (centres unmarked) [Compound 1]
940	CN1C(=O)C(c2ccc(C(F)F)nc2)(c2cccc(-c3cncnc3)c2)N=C1N (centres unmarked) [Compound 6]
7860	CN1C(=O)C(c2cccc(-c3cncnc3)c2)(c2cccc(C(F)(F)F)n2)N=C1N (centres unmarked) [Compound 5]
